Laboratory results as given in patent US20230085307A1, “PYRIDAZINONE COMPOUND AND HERBICIDE” (NISSAN CHEMICAL CORPORATION, priority 2019, published 2023).

Key:
[1] = test system: late watergrass; experiment: Test Example 1: herbicidal activity, application before weed generation under submerged conditions (Table 16, symbol A); type: in vivo, late watergrass (Echinochloa oryzicola); conditions: 320 g/ha applied herbicide
Summary of the method: (§1)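 Submerged Wagner pots (alluvial soil, 4 cm water) sown with weed seeds and planted with 2.5-leaf rice seedlings; emulsifiable concentrate diluted in water applied to water surface on sowing day. Held in greenhouse at 25-30 °C; injury scored 0-5 by herbicidal rate after three weeks.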

[2] = test system: Japanese bulrush; experiment: Test Example 1: herbicidal activity, application before weed generation under submerged conditions (Table 16, symbol B); type: in vivo, Japanese bulrush (Schoenoplectus juncoides); conditions: 320 g/ha applied herbicide
Summary of the method: as §1

[3] = test system: oval-leafed pondweed; experiment: Test Example 1: herbicidal activity, application before weed generation under submerged conditions (Table 16, symbol C); type: in vivo, oval-leafed pondweed (Monochoria vaginalis); conditions: 320 g/ha applied herbicide
Summary of the method: as §1

[4] = test system: barnyard grass; experiment: Test Example 3: herbicidal effect by foliage application, Wagner pot (Table 18, symbol H); type: in vivo, barnyard grass (Echinochloa crus-galli); conditions: amount of applied herbicide 320 g/ha
Summary of the method: (§2)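 Plants were sown in alluvial soil held under 0.1–0.5 cm standing water and grown 14 days in a greenhouse at 25–30 °C. An emulsifiable formulation, water-diluted to the set dose, was then sprayed onto the foliage, and effects were scored three weeks later using previously defined criteria.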

[5] = test system: Chinese sprangletop; experiment: Test Example 3: herbicidal effect by foliage application, Wagner pot (Table 18, symbol D); type: in vivo, chinese sprangletop (Leptochloa chinensis); conditions: amount of applied herbicide 320 g/ha
Summary of the method: as §2

[6] = test system: rice flat sedge; experiment: Test Example 3: herbicidal effect by foliage application, Wagner pot (Table 18, symbol E); type: in vivo, rice flat sedge (Cyperus iria); conditions: amount of applied herbicide 320 g/ha
Summary of the method: as §2

[7] = test system: southern crabgrass; experiment: Test Example 4: herbicidal effect by soil treatment (Table 19, symbol F); type: in vivo, southern crabgrass (Digitaria ciliaris); conditions: amount of applied herbicide 320 g/ha
Summary of the method: (§3)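 Pre-emergence style soil spray: seeds under ~1.5 cm sterilized diluvial soil received a uniform coat of emulsion diluted to the predetermined herbicide amount. Greenhouse 25–30° C; readout at week three on previously defined criteria.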

[8] = test system: green foxtail; experiment: Test Example 4: herbicidal effect by soil treatment (Table 19, symbol G); type: in vivo, green foxtail (Setaria viridis); conditions: amount of applied herbicide 320 g/ha
Summary of the method: as §3

[9] = test system: barnyard grass; experiment: Test Example 4: herbicidal effect by soil treatment (Table 19, symbol H); type: in vivo, barnyard grass (Echinochloa crus-galli); conditions: amount of applied herbicide 320 g/ha
Summary of the method: as §3

[10] = test system: wild oat; experiment: Test Example 4: herbicidal effect by soil treatment (Table 19, symbol I); type: in vivo, wild oat (Avena fatua); conditions: amount of applied herbicide 320 g/ha
Summary of the method: as §3

[11] = test system: blackgrass; experiment: Test Example 4: herbicidal effect by soil treatment (Table 19, symbol J); type: in vivo, blackgrass (Alopecurus myosuroides); conditions: amount of applied herbicide 320 g/ha
Summary of the method: as §3

[12] = test system: Italian ryegrass; experiment: Test Example 4: herbicidal effect by soil treatment (Table 19, symbol K); type: in vivo, Italian ryegrass (Lolium multiflorum); conditions: amount of applied herbicide 320 g/ha
Summary of the method: as §3

[13] = test system: windgrass; experiment: Test Example 4: herbicidal effect by soil treatment (Table 19, symbol L); type: in vivo, windgrass (Apera spica-venti); conditions: amount of applied herbicide 320 g/ha
Summary of the method: as §3

[14] = test system: velvetleaf; experiment: Test Example 4: herbicidal effect by soil treatment (Table 19, symbol M); type: in vivo, velvetleaf (Abutilon theophrasti); conditions: amount of applied herbicide 320 g/ha
Summary of the method: as §3

[15] = test system: redroot pigweed; experiment: Test Example 4: herbicidal effect by soil treatment (Table 19, symbol N); type: in vivo, redroot pigweed (Amaranthus retroflexus); conditions: amount of applied herbicide 320 g/ha
Summary of the method: as §3

[16] = test system: lambsquarters; experiment: Test Example 4: herbicidal effect by soil treatment (Table 19, symbol O); type: in vivo, lambsquarters (Chenopodium album); conditions: amount of applied herbicide 320 g/ha
Summary of the method: as §3

[17] = test system: chickweed; experiment: Test Example 4: herbicidal effect by soil treatment (Table 19, symbol P); type: in vivo, common chickweed (Stellaria media); conditions: amount of applied herbicide 320 g/ha
Summary of the method: as §3

[18] = test system: persian speedwell; experiment: Test Example 4: herbicidal effect by soil treatment (Table 19, symbol R); type: in vivo, Persian speedwell (Veronica persica); conditions: amount of applied herbicide 320 g/ha
Summary of the method: as §3

[19] = test system: southern crabgrass; experiment: Test Example 5: herbicidal effect by foliage application, plastic box (Table 20, symbol F); type: in vivo, southern crabgrass (Digitaria ciliaris); conditions: foliage application, AAH 320 g/ha, evaluated three weeks after application
Summary of the method: (§4)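 Plants were sown into sterilized diluvial soil under about 1.5 cm cover and kept in a greenhouse at 25° C. to 30° C. Fourteen days on, foliage received an even spray of the diluted emulsion. Herbicidal or crop effect was judged three weeks afterwards.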

[20] = test system: green foxtail; experiment: Test Example 5: herbicidal effect by foliage application, plastic box (Table 20, symbol G); type: in vivo, green foxtail (Setaria viridis); conditions: foliage application, AAH 320 g/ha, evaluated three weeks after application
Summary of the method: as §4

[21] = test system: barnyard grass; experiment: Test Example 5: herbicidal effect by foliage application, plastic box (Table 20, symbol H); type: in vivo, barnyard grass (Echinochloa crus-galli); conditions: foliage application, AAH 320 g/ha, evaluated three weeks after application
Summary of the method: as §4

[22] = test system: wild oat; experiment: Test Example 5: herbicidal effect by foliage application, plastic box (Table 20, symbol I); type: in vivo, wild oat (Avena fatua); conditions: foliage application, AAH 320 g/ha, evaluated three weeks after application
Summary of the method: as §4

[23] = test system: blackgrass; experiment: Test Example 5: herbicidal effect by foliage application, plastic box (Table 20, symbol J); type: in vivo, blackgrass (Alopecurus myosuroides); conditions: foliage application, AAH 320 g/ha, evaluated three weeks after application
Summary of the method: as §4

[24] = test system: Italian ryegrass; experiment: Test Example 5: herbicidal effect by foliage application, plastic box (Table 20, symbol K); type: in vivo, Italian ryegrass (Lolium multiflorum); conditions: foliage application, AAH 320 g/ha, evaluated three weeks after application
Summary of the method: as §4

[25] = test system: windgrass; experiment: Test Example 5: herbicidal effect by foliage application, plastic box (Table 20, symbol L); type: in vivo, windgrass (Apera spica-venti); conditions: foliage application, AAH 320 g/ha, evaluated three weeks after application
Summary of the method: as §4

[26] = test system: velvetleaf; experiment: Test Example 5: herbicidal effect by foliage application, plastic box (Table 20, symbol M); type: in vivo, velvetleaf (Abutilon theophrasti); conditions: foliage application, AAH 320 g/ha, evaluated three weeks after application
Summary of the method: as §4

[27] = test system: redroot pigweed; experiment: Test Example 5: herbicidal effect by foliage application, plastic box (Table 20, symbol N); type: in vivo, redroot pigweed (Amaranthus retroflexus); conditions: foliage application, AAH 320 g/ha, evaluated three weeks after application
Summary of the method: as §4

[28] = test system: lambsquarters; experiment: Test Example 5: herbicidal effect by foliage application, plastic box (Table 20, symbol O); type: in vivo, lambsquarters (Chenopodium album); conditions: foliage application, AAH 320 g/ha, evaluated three weeks after application
Summary of the method: as §4

[29] = test system: chickweed; experiment: Test Example 5: herbicidal effect by foliage application, plastic box (Table 20, symbol P); type: in vivo, common chickweed (Stellaria media); conditions: foliage application, AAH 320 g/ha, evaluated three weeks after application
Summary of the method: as §4

[30] = test system: false cleavers; experiment: Test Example 5: herbicidal effect by foliage application, plastic box (Table 20, symbol Q); type: in vivo, false cleavers (Galium spurium); conditions: foliage application, AAH 320 g/ha, evaluated three weeks after application
Summary of the method: as §4

[31] = test system: persian speedwell; experiment: Test Example 5: herbicidal effect by foliage application, plastic box (Table 20, symbol R); type: in vivo, Persian speedwell (Veronica persica); conditions: foliage application, AAH 320 g/ha, evaluated three weeks after application
Summary of the method: as §4

With `Cc1ccc(S(=O)(=O)Oc2c(C)nn(C)c(=O)c2-c2c(-c3ccc(OC(F)F)cc3)sc3ccc(F)cc23)cc1` [2-312] the “Herbicidal effect on A: late watergrass (grade 0-5)” value [1] was 2 (Herbicidal rate of 20% or more and less than 40%), the “Herbicidal effect on B: Japanese bulrush (grade 0-5)” value [2] was 3 (Herbicidal rate of 40% or more and less than 70%) and the “Herbicidal effect on C: oval-leafed pondweed (grade 0-5)” value [3] was 0 (Herbicidal rate of 5% or less (almost no effect)). The “herbicidal effect on H: barnyard grass” value [4] was 5 (Herbicidal rate of 90% or more (almost completely withered)), the “herbicidal effect on D: Chinese sprangletop” value [5] was 3 (Herbicidal rate of 40% or more and less than 70%) and the “herbicidal effect on E: rice flat sedge” value [6] was 5 (Herbicidal rate of 90% or more (almost completely withered)). For the same compound, the “herbicidal effect on F: southern crabgrass” value [7] was 0 (Herbicidal rate of 5% or less (almost no effect)), the “herbicidal effect on G: green foxtail” value [8] was 0 (Herbicidal rate of 5% or less (almost no effect)) and the “herbicidal effect on H: barnyard grass” value [9] was 1 (Herbicidal rate of 5% or more and less than 20%). For the same compound, the “herbicidal effect on I: wild oat” value [10] was 0 (Herbicidal rate of 5% or less (almost no effect)), the “herbicidal effect on J: blackgrass” value [11] was 3 (Herbicidal rate of 40% or more and less than 70%) and the “herbicidal effect on K: Italian ryegrass” value [12] was 5 (Herbicidal rate of 90% or more (almost completely withered)). The “herbicidal effect on L: windgrass” value [13] was 0 (Herbicidal rate of 5% or less (almost no effect)), the “herbicidal effect on M: velvetleaf” value [14] was 3 (Herbicidal rate of 40% or more and less than 70%) and the “herbicidal effect on N: redroot pigweed” value [15] was 5 (Herbicidal rate of 90% or more (almost completely withered)). The “herbicidal effect on O: lambsquarters” value [16] was 4 (Herbicidal rate of 70% or more and less than 90%), the “herbicidal effect on P: chickweed” value [17] was 5 (Herbicidal rate of 90% or more (almost completely withered)) and the “herbicidal effect on R: persian speedwell” value [18] was 5 (Herbicidal rate of 90% or more (almost completely withered)). The “F: southern crabgrass, herbicidal effect (criteria 0-5)” value [19] was 1 (Herbicidal rate of 5% or more and less than 20%), the “G: green foxtail, herbicidal effect (criteria 0-5)” value [20] was 4 (Herbicidal rate of 70% or more and less than 90%) and the “H: barnyard grass, herbicidal effect (criteria 0-5)” value [21] was 5 (Herbicidal rate of 90% or more (almost completely withered)). The “I: wild oat, herbicidal effect (criteria 0-5)” value [22] was 3 (Herbicidal rate of 40% or more and less than 70%), the “J: blackgrass, herbicidal effect (criteria 0-5)” value [23] was 4 (Herbicidal rate of 70% or more and less than 90%) and the “K: Italian ryegrass, herbicidal effect (criteria 0-5)” value [24] was 5 (Herbicidal rate of 90% or more (almost completely withered)). The “L: windgrass, herbicidal effect (criteria 0-5)” value [25] was 4 (Herbicidal rate of 70% or more and less than 90%), the “M: velvetleaf, herbicidal effect (criteria 0-5)” value [26] was 5 (Herbicidal rate of 90% or more (almost completely withered)) and the “N: redroot pigweed, herbicidal effect (criteria 0-5)” value [27] was 5 (Herbicidal rate of 90% or more (almost completely withered)). For the same compound, the “O: lambsquarters, herbicidal effect (criteria 0-5)” value [28] was 5 (Herbicidal rate of 90% or more (almost completely withered)), the “P: chickweed, herbicidal effect (criteria 0-5)” value [29] was 5 (Herbicidal rate of 90% or more (almost completely withered)) and the “Q: false cleavers, herbicidal effect (criteria 0-5)” value [30] was 5 (Herbicidal rate of 90% or more (almost completely withered)). For the same compound, the “R: persian speedwell, herbicidal effect (criteria 0-5)” value [31] was 5 (Herbicidal rate of 90% or more (almost completely withered)).
